According to patent publication US6107316A, “Method for treating protozoal infections” (priority 1998, dated 2000):
Converted amounts (≈) assume the structure as drawn. Where two headings read alike, the source gives them in different places.

Assays:
[1] = system: Encephalitozoon (Septata) intestinalis; experiment: growth inhibitory activity against E. intestinalis grown on Vero cells (spore count); format: cell-based; conditions: 336 h, 0.1 μg/ml, spore number after 2 weeks, read-out: Growth (% of control)
Experimental: Compounds 2, 10 and 15 were tested for i,7 vitro growth inhibitory activity against E. intestinalis, grown on African green monkey kidney cells (Vero cells). Vero cells were grown in 25-cm^2 culture flasks at 37° C. in a humidified 5% carbon dioxide incubator. Cultures were maintained in minimal essential medium (Gibco BRL, Gaithersburg, Md., U.S.A.), supplemented with L-glutamine, Earle's salts, 5% heat-inactivated foetal calf serum (Hyclone Labs, Inc., U.S.A.), fungizone (2 μg/ml, Gibco BRL) and gentamicin (50 μg/ml, Gibco BRL). E. intestinalis spores were collected from the supernatant of an infected Vero cell culture and were used to infect normal cells to produce a fresh spore preparation for growth inhibition tests.
Growth inhibition tests were performed in 24-well culture plates. One ml of Vero cells (5×10^4 cells per ml) was placed in each well and the cells incubated for 12-15 hours at 37° C. The supernatant medium was then removed and replaced with 1 ml of medium containing 1.5-2.0×10^4 E. intestinalis spores per ml along with 1 μl of test compound dissolved in dimethylsulfoxide (DMSO) or DMSO alone for the control treatments without test compound. The plates were incubated at 37° C. and the medium was changed every 72 h along with fresh test compound in DMSO or DMSO alone (controls). After 2 weeks the supernatant was transferred from each well to a microcentiifuge tube, then concentrated by centrifugation with resuspension of the resulting E. intestinalis spore pellet in 300-500 μl fresh medium. The spore number in each sample was then determined by counting in a hemocytometer. The results in Table 11 show the effects of the test compounds on the number of spores and are expressed as a percentage of the spore number in the control treatment without test compound.

Tetrahymena pyriformis = experiment: in vitro growth inhibitory activity against the ciliate Tetrahymena pyriformis; format: cell-based, Tetrahymena pyriformis (ATCC strain 30005); conditions: read-out: EC50 Tetrahymena pyriformis
Experimental: Compounds were evaluated for in vitro growth inhibitory activity against the ciliate Tetrahymena pyriformis, which was used as an indicator organism for the Apicomplexia since by several criteria the ciliates and Apicomplexa are closely related (Edlind T. D. et al., Mol. Phylogenet. Evol. vol. 5, pp. 359-367, 1996). T. pyriformis (ATCC strain 30005) was grown in 1 ml ATCC medium 357 at 25° C. in 4 ml polyallomer culture tubes without shaking. Compounds were dissolved in dimethylsufoxide (DMSO) and added to the cultures (containing 3,000 cells/ml) such that the final DMSO concentration was 0.1-0.3%. […] Parasitol. vol. 84, pp. 355-370, 1996) and Cryptosporidium parvum (Arrowood et al., FEMS Microbial. Lett., vol. 136, pp. 245-249, 1996) were tested for comparison.

Giardia lamblia = experiment: in vitro growth inhibitory activity against Giardia lamblia; format: cell-based; conditions: Giardia duodenalis; concentration required to inhibit growth by 50%
Experimental: 35, pp. 2198-2202 (1991). EC50 values for test compounds, expressed in parts per million (ppm), were calculated from dose response curves and are presented in Table 4. As used herein, the terminology "EC50" means the concentration of test compound required to inhibit growth by 50% are compared to a control lacking the test compound. Metronidazole was included as a standard in the tests for comparative purposes.

Entamoeba histolytica = experiment: in vitro growth inhibitory activity against E. histolytica; format: cell-based
Text: 35, pp. 2198-2202 (1991). Metronidazole was included as a standard in the test for comparative purposes.

Leishmania major = experiment: in vitro growth inhibitory activity against L. major promastigotes; format: cell-based
Text: 35, pp. 2198-2202 (1991).

Cryptosporidium parvum = conditions: Arrowood et al., 1996; cited from earlier work
Toxoplasma gondii = conditions: Stokkermans et al., 1996; cited from earlier work

Row | SMILES | activity at 0.1 µg/mL [1] | EC50 (Tetrahymena pyriformis; 24 hours, 25° C.) | EC50 (Giardia lamblia) | EC50 (Entamoeba histolytica) | EC50 (Leishmania major) | EC50 (Tetrahymena pyriformis; 24 h) | in vitro activity against Cryptosporidium parvum (Cryptosporidium parvum) | in vitro activity against Toxoplasma gondii (Toxoplasma gondii)
1 | CCC(C)(NC(=O)c1cc(Cl)cc(C=NOC)c1)C(=O)CCl (stereo not shown) [Compound 2] | 29% | < 0.01 µg/mL | 0.03 µg/mL (≈ 0.0869 µM) | 12 µg/mL (≈ 34.8 µM) | 0.03 µg/mL (≈ 0.0869 µM) |  |  | 
2 | CCC(C)(NC(=O)c1cc(C)cc(Br)c1)C(=O)CCl (stereo not shown) [Compound 3] |  | < 0.01 µg/mL | 0.06 µg/mL (≈ 0.173 µM) | 16 µg/mL (≈ 46.2 µM) | 0.2 µg/mL (≈ 0.577 µM) |  |  | 
3 | CCC(C)(NC(=O)c1cncc(Br)c1)C(=O)CCl (stereo not shown) [Compound 15] | 13% | < 0.01 µg/mL | 0.2 µg/mL (≈ 0.599 µM) | 20 µg/mL (≈ 59.9 µM) | 0.7 µg/mL (≈ 2.1 µM) |  |  | 
4 | Cc1ncc([N+](=O)[O-])n1CCO [Metronidazole, reference compound] |  |  | 0.7 µg/mL (≈ 4.09 µM) | 0.5 µg/mL (≈ 2.92 µM) |  |  |  | 
5 | CCC(CC)Nc1c([N+](=O)[O-])cc(C)c(C)c1[N+](=O)[O-] [pendimethalin] |  |  |  |  |  | 2 µg/mL (≈ 7.11 µM) | have in vitro activity | have in vitro activity
6 | CCCN(CCC)c1c([N+](=O)[O-])cc(C(F)(F)F)cc1[N+](=O)[O-] [trifluralin] |  | > 6 µg/mL |  |  |  |  | have in vitro activity | have in vitro activity
